The IC50 is the concentration needed to halve the response being measured. Low values mean higher potency, high ones lower potency.

Experimental findings from patent US9169224B2, “Piperazinyl and piperidinyl ureas as modulators of fatty acid amide hydrolase” (Janssen Pharmaceutica NV, priority 2004, dated 2015) are described below.

Where a name gives a salt, the structure may show the parent alone.

Holding throughout (assay type): biochemical
Assay [1] deals with T1, FAAH (Homo sapiens (Human), UniProt O00519). The experiment in a line: Assay Method 1: FAAH assay, T84 cell homogenate, 3H-anandamide hydrolysis. Conditions: 3H-AEA tracer 200 nM, 1 h at rt. The method in brief:
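Homogenate of human T84 cells in pH 9 Tris/EDTA buffer with 0.02% Triton X-100 was incubated with compound and 200 nM final 3H-anandamide for 1 h at rt. Released [3H]ethanolamine was separated from substrate through activated charcoal by centrifugation and quantified by scintillation counting.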

Another assay has as its target rat FAAH (Rattus norvegicus (Rat), UniProt P97612). The experiment in a line: Assay Method 3: FAAH assay, cells transfected with rat FAAH. Conditions: T84 or rat FAAH-transfected SK-N-MC cell homogenate, 3H-AEA tracer 80 nM, 1 h at rt. On the procedure:
Assay Method 3 A. Transfection of Cells with Rat FAAH
(§1) A 10-cm tissue culture dish with a confluent monolayer of SK-N-MC cells was split 2 days (d) prior to transfection. Using sterile technique, the media was removed and the cells were detached from the dish by the addition of trypsin. One fifth of the cells were then placed onto a new 10-cm dish. Cells were grown in a 37° C. incubator with 5% CO2 in Minimal Essential Media Eagle with 10% Fetal Bovine Serum. After 2 d, cells were approximately 80% confluent. These cells were removed from the dish with trypsin and pelleted in a clinical centrifuge. The pellet was re-suspended in 400 μL complete media and transferred to an electroporation cuvette with a 0.4 cm gap between the electrodes. Supercoiled rat FAAH cDNA (1 μg) was added to the cells and mixed. The voltage for the electroporation was set at 0.25 kV, and the capacitance was set at 960 μF. After electroporation, the cells were diluted into complete media (10 mL) and plated onto four 10-cm dishes. Because of the variability in the efficiency of electroporation, four different concentrations of cells were plated. The ratios used were 1:20, 1:10, and 1:5, with the remainder of the cells being added to the fourth dish. The cells were allowed to recover for 24 h before adding the selection media (complete media with 600 μg/mL G418). After 10 d, dishes were analyzed for surviving colonies of cells. Dishes with well-isolated colonies were used. Cells from individual colonies were isolated and tested.
(§2) T84 frozen cell pellets or transfected SK-N-MC cells (contents of 1×15 cm culture dishes) were homogenized in 50 mL of FAAH assay buffer (125 mM Tris, 1 mM EDTA, 0.2% Glycerol, 0.02% Triton X-100, 0.4 mM Hepes, pH 9). The assay mixture consisted of 50 μL of the cell homogenate, 10 μL of the test compound, and 40 μL of anandamide [1-^3H-ethanolamine] (^3H-AEA, Perkin-Elmer, 10.3 Ci/mmol), which was added last, for a final tracer concentration of 80 nM. The reaction mixture was incubated at rt for 1 h. During the incubation, 96-well Multiscreen filter plates (catalog number MAFCNOB50; Millipore, Bedford, Mass., USA) were loaded with 25 μL of activated charcoal (Multiscreen column loader, catalog number MACL09625, Millipore) and washed once with 100 μL of MeOH. Also during the incubation, 96-well DYNEX MicroLite plates (catalog number NL510410) were loaded with 100 μL of MicroScint40 (catalog number 6013641, Packard Bioscience, Meriden, Conn., USA). After the 1 h incubation, 60 μL of the reaction mixture were transferred to the charcoal plates, which were then assembled on top of the DYNEX plates using Centrifuge Alignment Frames (catalog number MACF09604, Millipore). The unbound labeled ethanolamine was centrifuged through to the bottom plate (5 min at 2000 rpm), which was preloaded with the scintillant, as described above. The plates were sealed and left at rt for 1 h before counting on a Hewlett Packard TopCount.

The target in assay [2] is T1, FAAH. The experiment in a line: Assay Method 2: FAAH assay, cells transfected with human FAAH. Conditions: T84 or human FAAH-transfected SK-N-MC cell homogenate, 3H-AEA tracer 80 nM, 1 h at rt. As for the experimental part:
Assay Method 2 A. Transfection of Cells with Human FAAH
as §1, with “Supercoiled human” for “Supercoiled rat”, “([…])” for “(1 μg)”
as §2, with “[…]” for “40 μL”

rat FAAH, sequence (P97612 whole entry): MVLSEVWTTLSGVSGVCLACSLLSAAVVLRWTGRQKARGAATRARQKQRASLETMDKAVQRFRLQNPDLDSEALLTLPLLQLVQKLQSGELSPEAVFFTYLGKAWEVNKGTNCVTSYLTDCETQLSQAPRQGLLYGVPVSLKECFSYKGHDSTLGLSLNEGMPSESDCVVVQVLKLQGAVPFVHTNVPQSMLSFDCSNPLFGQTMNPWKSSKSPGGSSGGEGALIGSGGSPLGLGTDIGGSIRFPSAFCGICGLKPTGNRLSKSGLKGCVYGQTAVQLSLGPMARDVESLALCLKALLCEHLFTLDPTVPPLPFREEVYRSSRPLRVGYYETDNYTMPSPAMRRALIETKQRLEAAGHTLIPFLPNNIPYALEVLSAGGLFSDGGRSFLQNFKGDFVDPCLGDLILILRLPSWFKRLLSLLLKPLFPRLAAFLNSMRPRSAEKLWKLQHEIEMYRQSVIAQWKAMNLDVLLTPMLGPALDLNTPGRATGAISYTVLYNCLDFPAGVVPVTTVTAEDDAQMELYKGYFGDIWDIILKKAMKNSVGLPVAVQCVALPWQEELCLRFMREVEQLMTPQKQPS
T1 sequence (O00519 whole entry): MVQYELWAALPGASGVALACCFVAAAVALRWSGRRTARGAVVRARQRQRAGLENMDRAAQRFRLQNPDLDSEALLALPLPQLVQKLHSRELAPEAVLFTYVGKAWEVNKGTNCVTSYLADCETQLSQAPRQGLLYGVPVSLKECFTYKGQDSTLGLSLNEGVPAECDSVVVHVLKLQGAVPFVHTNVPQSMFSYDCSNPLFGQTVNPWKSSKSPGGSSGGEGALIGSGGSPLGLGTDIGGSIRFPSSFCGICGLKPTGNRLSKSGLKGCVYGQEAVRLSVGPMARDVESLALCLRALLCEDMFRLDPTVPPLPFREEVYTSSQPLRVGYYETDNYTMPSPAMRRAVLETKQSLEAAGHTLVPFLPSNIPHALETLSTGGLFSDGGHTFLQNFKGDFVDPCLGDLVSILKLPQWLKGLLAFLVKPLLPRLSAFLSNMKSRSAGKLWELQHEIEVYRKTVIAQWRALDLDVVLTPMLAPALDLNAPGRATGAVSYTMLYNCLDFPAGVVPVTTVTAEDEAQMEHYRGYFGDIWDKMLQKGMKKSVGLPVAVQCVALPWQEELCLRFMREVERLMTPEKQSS

For the compound `O=C(Nc1ccccc1)N1CCN(Cc2ccc3ccccc3n2)CC1` [Example 19, 4-Quinolin-2-ylmethyl-piperazine-1-carboxylic acid phenylamide], the 50% inhibitory concentration (IC50) against FAAH [1] is 19 nM; on rat FAAH it was 350 nM.
For the compound `Cn1c(CN2CCN(C(=O)Nc3ccccc3)CC2)cc2ccccc21` [Example 22, 4-(1-Methyl-1H-indol-2-ylmethyl)-piperazine-1-carboxylic acid phenylamide], the half-maximal inhibitory concentration (IC50) was determined as 26 nM on FAAH [1] and 1400 nM against rat FAAH.
For the compound `COc1cc(Br)cc(CN2CCN(C(=O)Nc3ccccc3)CC2)c1O` [Example 26, 4-(5-Bromo-2-hydroxy-3-methoxy-benzyl)-piperazine-1-carboxylic acid phenylamide], the IC50 against FAAH [1] was found to be 79 nM; against rat FAAH, 130 nM.
Regarding `O=C(Nc1ccc(F)cc1)N1CCN(Cc2ccc3ccccc3c2)CC1` [Example 57, 4-Naphthalen-2-ylmethyl-piperazine-1-carboxylic acid (4-fluoro-phenyl)-amide], the half-maximal inhibitory concentration (IC50) on FAAH [1] came to 54 nM; on rat FAAH, 430 nM.
Consider `O=C(Nc1ccccc1)N1CCN(Cc2ccc3ccc4cccc5ccc2c3c45)CC1` [Example 68, 4-Pyren-1-ylmethyl-piperazine-1-carboxylic acid phenylamide], for which the IC50 at FAAH [1] came to 95 nM; at rat FAAH it was 610 nM.
For the compound `COC(=O)c1ccccc1NC(=O)N1CCN(Cc2cnc3ccccc3c2)CC1` [Example 105, 2-[(4-Quinolin-3-ylmethyl-piperazine-1-carbonyl)-amino]-benzoic acid methyl ester], the half-inhibitory concentration (IC50) on FAAH [2] was greater than 10000 nM; at rat FAAH, 10000 nM.
As for `COC(=O)c1cccc(NC(=O)N2CCN(Cc3cnc4ccccc4c3)CC2)c1` [Example 106, 3-[(4-Quinolin-3-ylmethyl-piperazine-1-carbonyl)-amino]-benzoic acid methyl ester], the IC50 came out at 230 nM at FAAH [2] and 2000 nM on rat FAAH.
Take `COC(=O)c1ccc(NC(=O)N2CCN(Cc3cnc4ccccc4c3)CC2)cc1` [Example 107, 4-[(4-Quinolin-3-ylmethyl-piperazine-1-carbonyl)-amino]-benzoic acid methyl ester]: the half-maximal inhibitory concentration (IC50) at FAAH [2] was determined as 650 nM; at rat FAAH, 8000 nM.
Turning to `O=C(Nc1ccc(F)cc1F)N1CCN(Cc2cnc3ccccc3c2)CC1` [Example 111, 4-Quinolin-3-ylmethyl-piperazine-1-carboxylic acid (2,4-difluoro-phenyl)-amide], the values for the IC50 on FAAH [1] and against rat FAAH were 250 nM and 2000 nM, respectively.
With `O=C(Nc1ccccc1F)N1CCN(Cc2cnc3ccccc3c2)CC1` [Example 112, 4-Quinolin-3-ylmethyl-piperazine-1-carboxylic acid (2-fluoro-phenyl)-amide], the IC50 was determined as 61 nM against FAAH [1] and 370 nM against rat FAAH.
Take `O=C(O)c1ccccc1NC(=O)N1CCN(Cc2cnc3ccccc3c2)CC1` [Example 140, 2-[(4-Quinolin-3-ylmethyl-piperazine-1-carbonyl)-amino]-benzoic acid (potassium salt)]: the IC50 on FAAH [2] is greater than 10000 nM; against rat FAAH it was 10000 nM.
In the case of `O=C(O)c1cccc(NC(=O)N2CCN(Cc3cnc4ccccc4c3)CC2)c1` [Example 141, 3-[(4-Quinolin-3-ylmethyl-piperazine-1-carbonyl)-amino]-benzoic acid (potassium salt)], the IC50 against FAAH [2] amounted to 5000 nM; against rat FAAH, 8000 nM.
With `O=C(Nc1cccnc1)N1CCN(Cc2cnc3ccccc3c2)CC1` [Example 142, 4-Quinolin-3-ylmethyl-piperazine-1-carboxylic acid pyridin-3-ylamide], the results for the 50% inhibitory concentration (IC50) on FAAH [2] and against rat FAAH were 4100 nM and 4000 nM, respectively.
Regarding `O=C(Nc1ccccn1)N1CCN(Cc2cnc3ccccc3c2)CC1` [Example 143, 4-Quinolin-3-ylmethyl-piperazine-1-carboxylic acid pyridin-2-ylamide], the values for the IC50 against FAAH [2] and at rat FAAH were 1800 nM and 8000 nM, respectively.
Take `O=C(Nc1ccncc1)N1CCN(Cc2cnc3ccccc3c2)CC1` [Example 144, 4-Quinolin-3-ylmethyl-piperazine-1-carboxylic acid pyridin-4-ylamide]: the IC50 at FAAH [2] was found to be 2000 nM; at rat FAAH, 10000 nM.
On to `O=C(Nc1ncccn1)N1CCN(Cc2cnc3ccccc3c2)CC1` [Example 145, 4-Quinolin-3-ylmethyl-piperazine-1-carboxylic acid pyrimidin-2-ylamide], for which the half-maximal inhibitory concentration (IC50) at FAAH [2] was found to be 8000 nM; against rat FAAH it was 10000 nM.
`O=C(Nc1cccnc1)N1CCN(Cc2ccc3c(c2)OCO3)CC1` [Example 146, 4-Benzo[1,3]dioxol-5-ylmethyl-piperazine-1-carboxylic acid pyridin-3-ylamide]: the values for the half-inhibitory concentration (IC50) at FAAH [2] and at rat FAAH were 380 nM and 6500 nM, respectively.
For `O=C(Nc1ccccc1)N1CCN(Cc2ccc(Br)c(Br)c2)CC1` [Example 162, 4-(3,4-Dibromo-benzyl)-piperazine-1-carboxylic acid phenylamide hydrochloride], the concentration for half-maximal inhibition (IC50) against FAAH [1] (hydrochloride) worked out at 38 nM; against rat FAAH (hydrochloride) it was 270 nM.
Take `O=C(Nc1ccccc1)N1CCN(Cc2ccc3c(c2)OCO3)CC1` [Example B, 4-Benzo[1,3]dioxol-5-ylmethyl-piperazine-1-carboxylic acid phenylamide, reference compound]: the IC50 was determined as 350 nM at FAAH [1] and 8000 nM against rat FAAH.
The corresponding values for `O=C(Nc1ccc(F)cc1)N1CCN(Cc2ccc3c(c2)OCO3)CC1` [Example G, 4-Benzo[1,3]dioxol-5-ylmethyl-piperazine-1-carboxylic acid (4-fluoro-phenyl)-amide, reference compound] are 1600 nM and 10000 nM.
